We go through two compounds from paper PMC9400670, “Establishing the selective phospholipid membrane coordination, permeation and lysis properties for a series of ‘druggable’ supramolecular self-associating antimicrobial amphiphiles” (Chemical Science, 2022).

Converted amounts (≈) assume the structure as drawn.

Assay [1] relates to MRSA USA300. The settings on record: n = 3, 0.5 McFarland standard, after 900 min, number in bracket = efficacy rank; cited from earlier work.
Assay [2] concerns E. coli DH10B. Particulars: after 900 min, cited from earlier work.
For assay [3], the system named is calcein loaded phospholipid vesicles (PC, PG, PE-PG mix, E. coli total, E. coli polar). As to the kind of experiment: Synthetic phospholipid vesicle lysis (calcein leakage) assay. Particulars: SSA 1.5 mM; thirty seconds after SSA addition; five vesicle types; in words. Here is the method: Here, samples of phospholipid vesicles containing the fluorescent dye calcein were prepared. At internal vesicle concentrations, this dye undergoes self-quenching. […] The increase in fluorescence output is proportional to the % of vesicle lysis observed upon the addition of SSAs 1–14, when calibrated against a solution of vesicles know to have undergone 100% lysis, see Fig. 5.
Fig. 5 The average (n = 3) percentage lysis (%) of vesicles (30 μM) composed of five different lipid compositions (Table 2), with an internal calcein concentration of 70 mM at 298 K. The % vesicle lysis was calculated through observation of increasing fluorescence emission (λem = 515 nm), following the addition of SSAs […] (1.5 mM) in a H2O/EtOH 95 : 5 solution after: (a) 30 s and; (b) 15 min. Triton X-100 (1%) was used as a positive control for 100% vesicle lysis. Data normalised to the addition of a H2O/EtOH 95 : 5 solution. Red = PC, yellow = PG, green = PE-PG mix, blue = E. coli total, pink = E. coli polar. Error = standard error.
Section 2: General Methods […]
Preparation of vesicles: All lipids were purchased as powder stocks from Avanti Polar Lipids. Lipid vesicles were prepared according to standard procedures.1 Each phospholipid was dissolved in chloroform (~ 10 mL) and the solvent was removed under reduced pressure. The thin film of dried lipid was further dried in vacuo for at least 2 hours. Lipid films were resuspended in the desired buffer and subjected to 9 freeze-thaw cycles in liquid nitrogen and extruded 20 times through a 200 nm […]
Preparation of calcein loaded vesicles: Lipid films were resuspended in buffer A (70 mM calcein, 10 mM TRIS pH 8.5, 0.5 mM EDTA, 110 mM NaCl, pH adjusted to 6-7) and subjected to 9 freeze-thaw cycles in liquid nitrogen and extruded 20 times through a 200 nm polycarbonate membrane. The suspension was run down a size exclusion column packed with sephadex G-50 using buffer B (10 mM TRIS pH 8.5, 0.5 mM EDTA, 110 mM NaCl). The hydrodynamic dimeter of the lipids was monitored using an Anton Paar LitesizerTM 500 to ensure the separation of free and entrapped calcein.
Phospholipid concentration was adjusted to 30 µM for vesicle leakage experiments.
Vesicle leakage assay: Black bottom 96-well plates were prepared with the appropriate lipid solution (100 µL, 30 µM) and desired SSA solution (100 µL) prepared in H2O/EtOH 95: 5. A solution of 1 % Triton X-100 (16) was used for a 100 % lysis control and a H2O/EtOH 95: 5 solution was used as a 0 % lysis control. Fluorescent measurements were taken at 25 °C using an excitation value of 495 nm and an optimised gain of 983. Data were acquired in endpoint mode. All experiments were repeated in triplicate to ensure experimental reproducibility. […]
Data

The test system of assay [4] is MRSA USA300. As to the kind of experiment: MIC50 determination and initial screening from OD600 growth curves, MRSA USA300. It is filed as cell-based, Staphylococcus aureus. Particulars: Staphylococcus aureus, 15 h, Table S3, conversion of the mM values of Table 1; MRSA USA300; after 900 mins. The text has this: (§1) The antimicrobial activity of SSAs 1–14 was established against both a model Gram-positive, clinically relevant methicillin resistant Staphylococcus aureus (MRSA), and a model Gram-negative, E. coli bacteria, Table 1. Here MIC50 values are given in mM to enable the derivation of molecular structure: antimicrobial efficacy: physical property relationships. […]
(§2) Data were acquired in endpoint mode. […]
(§3) Section 3: Microbial Methods
(§4) These methods were taken directly from UK Health and Security Office (UKHSA) standard operating […]
(§5) Preparation of Luria Broth media (LB): Yeast extract (5 g), tryptone (10 g) and sodium chloride (10 g) were dissolved in dH₂O (1 L) then divided into bottles and autoclaved.
(§6) Preparation of Luria Broth (LB) agar plates: Agar (6 g) was added to LB (400 mL) and autoclaved. Once cool, the LB agar was poured into sterile petri dishes under sterile conditions and allowed to set. LB plates were stored at 4 °C until use.
(§7) Preparation of bacterial plates: Sterile LB agar plates were streaked using Escherichia coli DH10B or USA300 Methicillin-Resistant Staphylococcus aureus then incubated at 37 °C overnight.
(§8) Preparation of Inoculum: An initial culture was made up by inoculating LB media (5 mL) with a single colony of bacteria under sterile conditions and incubated at 37 °C with shaking overnight. The following day, overnight bacterial cultures were subcultured into fresh LB medium to a starting OD600 […]
(§9) Preparation of 96 well microplate for screening: 20 mM solutions of each compound to be tested were made up using 5 % ethanol. The 1:100 cell suspension (150 µL) was pipetted into the wells and SSA compound solutions (30 µL) were added into each well. The final screening concentration for each compound was 3.3 mM in the well. These were incubated for 20 hours in a plate reader, with optical density readings being taken at 600 nm every 15 minutes. Optical density readings were plotted against time to produce growth curves. […]
(§10) individual wells under sterile conditions. Compounds (30 µL) were added to the wells to equal a total volume of 180 µL in the wells. Six repeats of each concentration for each compound were created each plate. The plates were sealed using parafilm, then incubated at 37°C in a microplate reader for 18-25 hours. Optical density readings were taken at 600 nm every 15 min. Data was used to generate […]
(§11) Calculation of MIC50: Growth curves were plotted using OD600 optical density readings in Microsoft ® Excel ® 2013. OD600 optical density readings 900 minutes from the start of each of these growth cultures for each concentration of compound were plotted in Origin ® 2015. The resultant curve was normalized and fitted using the Boltzmann fit to define the MIC50 values for each compound.

Assay [5] concerns E. coli DH10B. As to the kind of experiment: MIC50 determination and initial screening from OD600 growth curves, E. coli DH10B. Particulars: Escherichia coli, 15 h; Table S3, conversion of the mM values of Table 1; E. coli DH10B; after 900 mins. The format is cell-based, Escherichia coli.
Description: as §1, §2, §3, §4, §5, §6, §7, §8, §9, §10, §11

In the case of `CCCCNC(=O)NCS(=O)(=O)O` [SSA 13], the “MIC50 MRSA” value in the assay with MRSA USA300 [1] is 4.41(10) mM. Also, the “initial antimicrobial screening, inhibition of growth, E. coli” value in the assay on E. coli DH10B [2] (3.3 mM) is “^c (SSA did not pass initial antimicrobial screening, exhibited <10% inhibition of growth at 3.3 mM after 900 min and therefore excluded from further study)”. Also, the vesicle lysis activity entry in assay [3] is given as “almost complete loss of any vesicle lysis activity”. This compound returned an MIC50 in the assay on MRSA USA300 [4] of 1990 mg/L (≈ 9.47 mM).
With `CCCCNC(=S)NCS(=O)(=O)O` [SSA 14], the “MIC50 MRSA” value in the assay with MRSA USA300 [1] is 3.07(9) mM. The “MIC50 E. coli” value with E. coli DH10B [2] (E. coli DH10B, n = 3, 0.5 McFarland standard, number in bracket = efficacy rank) is listed as 6.03(9) mM. In addition, the MIC50 in the assay on E. coli DH10B [5] came out at 2820 mg/L (≈ 12.5 mM); in the assay with MRSA USA300 [4] it was 1440 mg/L (≈ 6.34 mM). For the same compound, the vesicle lysis activity entry in assay [3] is given as “almost complete loss of any vesicle lysis activity”.
